Reference: US20260115280A1, “VACCINES” (ADJUVANCE TECHNOLOGIES, INC., priority 2021, published 2026)

What was measured:
[1] = system: CD8 T cells; test: D26 CD8 T-cell ICS (Example 5); assay type: in vivo; settings: CD-1 mice; high dose PHAD, both doses CRX-527, high dose TLR4a-1 (each with gE + 40 mcg TQL-1055); AS01
Source text: (§1) The tolerability and immunogenicity of formulations containing (TQL-1055 free acid HP-β-CD (2-hydroxypropyl beta-cyclodextrin) and TLR4 agonist candidates were studied. CD-1 mice were immunized as shown in the table below. PHAD liposomes were obtained from Avanti. EcML was obtained from EuBiologics. CRX-527 was obtained from InvivoGen. TLR4a-1 is an undisclosed TLR4 compound. AS01 is a combination of 5 mcg QS-21 and 5 mcg MPL used in SHINGRIX.
(§2) Mice were immunized via I.M. on Day 0 and Day 14. […] Weight measurements were also obtained on Days 0, 1, 2, 14, 15, 16, and 17.

[2] = system: gE; test: Anti-gE ELISA, D28 IgG2a subclass endpoint titers (Example 5); assay type: in vivo, Varicella zoster virus; settings: CD-1 mice; with 5 mcg gE + 40 mcg TQL-1055; EcML statement at the low TLR4a dose
Source text: as §1
(§3) Mice were immunized via I.M. on Day 0 and Day 14. Groups were bled at Day-1, Day 13 (post Dose 1), and Day 28 (post Dose 2) for serum analysis for anti-gE specific antibody response and anti-gE specific T cell response. Weight measurements were also obtained on Days 0, 1, 2, 14, 15, 16, and 17.
Similar responses were observed from all 4 TLR4 agonists with CRX-527 having the lowest IgG2a titers. There was a more pronounced dose effect of TLR4a on IgG2a than total IgG. PHAD had the largest difference between low and high dose at 8 times higher. At the low TLR4a dose, EcML had the highest IgG2a.

[3] = system: CD4+ T cells; test: D26 CD4 T-cell ICS (Example 5); assay type: in vivo; settings: CD-1 mice, high dose PHAD, high dose CRX-527, low dose TLR4a-1 (each with gE + 40 mcg TQL-1055)
Source text: as §1, §2
The increases were driven largely by higher single cytokine positive T cells for IFN-γ or IL-2.

[4] = system: CD4+ T cells; test: D42 CD4 T-cell ICS (Example 5); assay type: in vivo; settings: CD-1 mice; AS01; both PHAD doses, high dose TLR4a-1, high dose CRX-527 (each with gE + 40 mcg TQL-1055)
Source text: as §1, §3
Overall, levels of activation much lower than D26 T cell data.

[5] = system: gE; test: Anti-gE ELISA, D28 total IgG endpoint titers (Example 5); assay type: in vivo, Varicella zoster virus; settings: CD-1 mice; high vs low TLR4 agonist dose with 5 mcg gE + 40 mcg TQL-1055 FA HPβCD
Source text: as §1, §3

[6] = Weight loss: mean percent initial weight change after immunization (Example 6); assay type: in vivo, C57BL/6J mice; settings: mice; TQL 1055 alone with gE
Description: as §1
The study was conducted in two parts with staggered start dates. Part A involved testing TQL1055 in combination with PHAD and EcML. Part B involved testing TQL1055 in combination with CRX-527 and TR4a-1.
Mice were immunized via I.M. on Day 0 and Day 14. Groups were bled at Day-1, Day 13 (post Dose 1), and Day 28 (post Dose 2) for serum analysis for anti-gE specific antibody response. Weight measurements were also obtained on Days 0, 1, 2, 14, 15, 16, and 17.
Post dose 1 mean percent (%) initial weight change for each group is depicted in FIGS. 40-45. Post dose 1 weight loss heatmaps are depicted in FIG. 46. Post dose 2 mean percent (%) initial weight change for each group is depicted in FIGS. 47-51. […] Weight loss appeared to be driven mostly by TLR4 dose.

[7] = system: CD4+ T cells; test: T-cell intracellular cytokine staining (ICS) assay, CD4+ T-cell (Example 4); assay type: in vivo; settings: mice
Description: (§4) The impact of TQL-1055 choline salt (in situ salt) at various dosages, a TLR9 or TLR4 agonist, and VZV gE (expressed by CHO cells), as compared to AS-01B (5 mcg MPL+5 mcg QS-21) was tested. In Experiment #1, mice were immunized with PBS alone, gE (5 mcg)+TLR9 ligand (50 mcg)+TQL-1055 (four groups: 5 mcg, 15 mcg, 25 mcg, 50 mcg), and AS-01B. In Experiment #2, mice were immunized with PBS alone, gE (5 mcg)+TLR4 ligand (5 mcg)+TQL-1055 (four groups: 5 mcg, 15 mcg, 25 mcg, 50 mcg), and AS-01B.
(§5) Mice were immunized at Day 0 and Day 21. Groups were bled at Day 31 […] for serum analysis.
FIG. 22 is a graph depicting the results of a T-cell intracellular cytokine staining (ICS) assay (CD4+ T-cell) showing the percentage of CD4+ T cells expressing one or more cytokines in response to stimulation with VZV gE for Experiment 1. FIG. 23 is a graph depicting the results of T-cell intracellular cytokine staining (ICS) assays (CD4+ T-cell) showing the percentage of CD4+ T cells expressing one or more cytokines in response to stimulation with VZV gE for Experiment 2.

[8] = system: spleen lymphocytes; test: FluoroSpot (T-cell) assay, spot forming cells per million spleen lymphocytes (Example 4); assay type: in vivo; settings: mice
Description: as §4, §5
FIG. 24 is a graph depicting the results of a FluroSpot (T-cell) assay showing spot forming cells per million spleen lymphocytes for Experiment 1. FIG. 25 is a graph depicting the results of a FluroSpot (T-cell) assay showing spot forming cells per million spleen lymphocytes for Experiment 2.

[9] = system: VZV gE; test: ELISA antibody titers (Example 4); assay type: in vivo, Varicella zoster virus; settings: mice
Description: as §4, §5
FIG. 26 is a graph depicting the results of an enzyme-linked immunosorbent assay (ELISA) showing antibody titers for […]. FIG. 27 is a graph depicting the results of an enzyme-linked immunosorbent assay (ELISA) showing antibody titers for Experiment 1.

[10] = gE 5 mcg + TLR9 ligand 50 mcg or TLR4 ligand 5 mcg + TQL-1055 5, 15, 25, 50 mcg
[11] = TQL-1055 5 mcg combined with TLR4 ligand vs AS-01B

| Structure (SMILES) | D26 activated CD8 T cells compared to unadjuvanted control group [1] | rank of IgG2a titers among the 4 TLR4 agonists [2] | D26 total cytokine+ CD4+ T cells compared to unadjuvanted ([3]; AS01) | D26 total polyfunctional CD4+ T cells compared to unadjuvanted control [3] | D42 total cytokine+ CD4+ T cells compared to unadjuvanted [4] | effect of increasing the TLR4 agonist dose on D28 total IgG endpoint titers [5] | weight loss compared to unadjuvanted [6] | T-cell response by ICS compared to AS-01B ([7]; TQL-1055 5 mcg combined with TLR4 ligand vs AS-01B (5 mcg MPL + 5 mcg QS-21)) | T-cell response by ICS (CD4+ T cells expressing one or more cytokines on stimulation with VZV gE): dose dependence [7, 10] | T-cell response by FluoroSpot compared to AS-01B [8, 11] | T-cell response by FluoroSpot: dose dependence [8, 10] | antibody response by ELISA compared to AS-01B [9, 11] | antibody response by ELISA: dose dependence [9, 10] |
| --- | --- | --- | --- | --- | --- | --- | --- | --- | --- | --- | --- | --- | --- |
| CCCCCCCCCCC[C@H](CC(=O)N[C@H]1[C@H](OC[C@H](NC(=O)C[C@@H](CCCCCCCCCCC)OC(=O)CCCCCCCCC)C(=O)O)O[C@H](CO)[C@@H](OP(=O)(O)O)[C@@H]1OC(=O)C[C@@H](CCCCCCCCCCC)OC(=O)CCCCCCCCC)OC(=O)CCCCCCCCC [CRX-527] | significantly higher | lowest | significantly increased | significantly higher | significantly increased | no effect | – | – | – | – | – | – | – |
| CC1O[C@@H](OC2C(O)[C@@H](NC(=O)CCCCCCCCCCC(=O)O)C(CO)O[C@H]2OC(=O)[C@]23CCC(C)(C)CC2C2=CCC4C5(C)CC[C@H](O)C(C)(C=O)C5CCC4(C)C2(C)CC3O)C(O)C(O)[C@H]1O[C@@H]1OC[C@@H](O)C(O)C1O (stereo partly shown) [TQL-1055] | – | – | – | – | – | – | no significant weight loss | without any significant difference | dose-dependent | without any significant difference | dose-dependent | without any significant difference | dose-dependent |
